Test results as given in ChEMBL document CHEMBL4699602, “Stapled and Xenopus Glucagon-Like Peptide 1 (GLP-1)-Based Dual GLP-1/Gastrin Receptor Agonists with Improved Metabolic Benefits in Rodent Models of Obesity and Diabetes” (J Med Chem, 2020).
pEC50: −log10 of the molar value. The source made the active and inactive calls. The rule behind the calls is not given here. *1 amine or outer side, *2 acyl side, *3 side chain or, on linkers, in order; H or OH if unused. Where a SMILES comes first, the peptide text is derived from it. Bridges are numbered along the chain shown (N, C = ends). [ ]: non-standard residue; d: D form. X4 = O=C(O)CCCCCCCCCCCCCCCCC(=O)NC(CCC(=O)NCCOCCOCC(=O)NCCOCCOCC(=O)NCCCCCCNC(=O)C(CCCCNC(=O)CCN1C(=O)CC([*:1])C1=O)NC(=O)CCN1C(=O)CC([*:2])C1=O)C(=O)O; X2 = O=C(O)CCCCCCCCCCCCCCCCC(=O)NC(CCC(=O)NCCOCCOCC(=O)NCCCCCCNC(=O)C(CCCCNC(=O)CCN1C(=O)CC([*:2])C1=O)NC(=O)CCN1C(=O)CC([*:1])C1=O)C(=O)O; X3 = O=C(O)CCCCCCCCCCCCCCCCC(=O)NC(CCC(=O)NCCOCCOCC(=O)NCCCCCCNC(=O)C(CCCCNC(=O)CCN1C(=O)CC([*:1])C1=O)NC(=O)CCN1C(=O)CC([*:2])C1=O)C(=O)O; X7 = O=C(O)CCCCCCCCCCCCCCCCC(=O)NCCOCCOCC(=O)NCCCCCCNC(=O)C(CCCCNC(=O)CCN1C(=O)CC([*:1])C1=O)NC(=O)CCN1C(=O)CC([*:2])C1=O; X8 = O=C(O)CCCCCCCCCCCCCCCCC(=O)NCCOCCOCC(=O)NCCCCCCNC(=O)C(CCCCNC(=O)CCN1C(=O)CC([*:2])C1=O)NC(=O)CCN1C(=O)CC([*:1])C1=O; X1 = CCCCCCCCCCCCCCCC(=O)NCCCCCCNC(=O)C(CCCCNC(=O)CCN1C(=O)CC([*:1])C1=O)NC(=O)CCN1C(=O)CC([*:2])C1=O; X6 = CCCCCCCCCCCCCCCC(=O)NCCCCCCNC(=O)C(CCCCNC(=O)CCN1C(=O)CC([*:2])C1=O)NC(=O)CCN1C(=O)CC([*:1])C1=O; Aib = CC(C)(N)C(=O)O

Key:
[1] = system: Mus musculus; assay: Hypoglycemic activity in ICR mouse assessed as decrease in blood glucose concentration at 25 nmol/kg, ip dosed 15 mins before test and measured up to 120 mins by OGTT method; type: functional, organism-based
[2] = target: T1, Glucagon-like peptide 1 receptor (Homo sapiens, UniProt P43220); assay: Agonist activity at human GLP-1R expressed in HEK293 cells assessed as stimulation of cAMP accumulation incubated for 20 mins in presence of 0% HSA; type: functional, cell-based
T1 sequence (P43220 whole entry): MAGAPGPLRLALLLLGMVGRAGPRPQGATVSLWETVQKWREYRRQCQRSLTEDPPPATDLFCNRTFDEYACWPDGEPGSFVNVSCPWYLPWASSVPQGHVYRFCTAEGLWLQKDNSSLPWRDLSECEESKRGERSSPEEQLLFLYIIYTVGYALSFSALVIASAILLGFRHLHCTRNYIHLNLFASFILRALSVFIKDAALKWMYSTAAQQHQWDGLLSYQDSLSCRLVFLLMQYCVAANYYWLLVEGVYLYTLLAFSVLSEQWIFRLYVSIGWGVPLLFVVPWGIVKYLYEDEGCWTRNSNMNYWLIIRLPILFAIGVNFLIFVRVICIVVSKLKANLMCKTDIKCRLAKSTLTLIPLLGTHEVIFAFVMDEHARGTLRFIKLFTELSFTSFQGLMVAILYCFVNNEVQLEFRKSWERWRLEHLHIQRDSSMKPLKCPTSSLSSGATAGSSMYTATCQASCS

[3] = target: T1, Glucagon-like peptide 1 receptor; assay: Ratio of EC50 for agonist activity at human GLP-1R expressed in HEK293 cells in presence of 4.4% HSA to EC50 for agonist activity at human GLP-1R expressed in HEK293 cells in presence of 0% HSA; type: cell-based
[4] = target: T1, Glucagon-like peptide 1 receptor; assay: Agonist activity at human GLP-1R expressed in HEK293 cells assessed as stimulation of cAMP accumulation incubated for 20 mins in presence of 4.4% HSA; type: functional, cell-based

Compound	Activity [1]	pEC50 [2]	Ratio EC50 [3]	pEC50 [4]
CC[C@H](C)[C@H](NC(=O)[C@H](Cc1ccccc1)NC(=O)[C@H](CCC(=O)O)NC(=O)[C@H](CCCCN)NC(=O)[C@H](C)NC(=O)[C@H](C)NC(=O)[C@H](CCC(N)=O)NC(=O)CNC(=O)[C@H](CCC(=O)O)NC(=O)[C@H](CC(C)C)NC(=O)[C@H](Cc1ccc(O)cc1)NC(=O)[C@H](CO)NC(=O)[C@H](CO)NC(=O)[C@@H](NC(=O)[C@H](CC(=O)O)NC(=O)[C@H](CO)NC(=O)[C@@H](NC(=O)[C@H](Cc1ccccc1)NC(=O)[C@@H](NC(=O)CNC(=O)[C@H](CCC(=O)O)NC(=O)[C@H](C)NC(=O)[C@@H](N)Cc1cnc[nH]1)[C@@H](C)O)[C@@H](C)O)C(C)C)C(=O)N[C@@H](C)C(=O)N[C@@H](Cc1c[nH]c2ccccc12)C(=O)N[C@@H](CC(C)C)C(=O)N[C@H](C(=O)N[C@@H](CCCCN)C(=O)NCC(=O)N[C@@H](CCCNC(=N)N)C(=O)O)C(C)C	Active			
CC[C@H](C)[C@@H]1NC(=O)[C@H](CC(C)C)NC(=O)[C@H](Cc2c[nH]c3ccccc23)NC(=O)[C@H](CCC(=O)O)NC(=O)[C@H]([C@@H](C)CC)NC(=O)[C@H](Cc2ccccc2)NC(=O)[C@@H](NC(=O)[C@H](CCCCN)NC(=O)[C@H](C)NC(=O)[C@H](C)NC(=O)[C@H](CCC(=O)O)NC(=O)[C@H](CCC(=O)O)NC(=O)[C@H](CCC(=O)O)NC(=O)[C@H](CC(C)C)NC(=O)[C@H](Cc2ccc(O)cc2)NC(=O)[C@H](CCC(=O)O)NC(=O)[C@@H](NC(=O)[C@@H](NC(=O)[C@H](CC(=O)O)NC(=O)[C@H](CC(N)=O)NC(=O)[C@@H](NC(=O)[C@H](Cc2ccc(O)cc2)NC(=O)[C@@H](NC(=O)CNC(=O)[C@H](CCC(=O)O)NC(=O)C(C)(C)NC(=O)[C@@H](N)Cc2c[nH]cn2)[C@@H](C)O)[C@@H](C)O)C(C)C)[C@@H](C)O)CSC2CC(=O)N(CCC(=O)NCCCCC(C(=O)NCCCCCCNC(=O)COCCOCCNC(=O)CCCCCCCCCCCCCCCCC(=O)O)NC(=O)CCN3C(=O)CC(SC[C@@H](C(=O)NCC(=O)N[C@@H](CCCCN)C(=O)N4CCC[C@H]4C(=O)N[C@@H](CO)C(=O)N[C@@H](CO)C(=O)NCC(=O)N[C@@H](C)C(=O)N4CCC[C@H]4C(=O)N4CCC[C@H]4C(=O)N4CCC[C@H]4C(=O)N[C@@H](CO)C(N)=O)NC1=O)C3=O)C2=O (some centres undefined) (HELM PEPTIDE1{H.[Aib].E.G.T.Y.T.N.D.V.T.E.Y.L.E.E.E.A.A.K.C.F.I.E.W.L.I.C.G.K.P.S.S.G.A.P.P.P.S.[am]}|CHEM1{[O=C(O)CCCCCCCCCCCCCCCCC(=O)NCCOCCOCC(=O)NCCCCCCNC(=O)C(CCCCNC(=O)CCN1C(=O)CC([*:1])C1=O)NC(=O)CCN1C(=O)CC([*:2])C1=O]}$PEPTIDE1,CHEM1,21:R3-1:R1|PEPTIDE1,CHEM1,28:R3-1:R2$$$V2.0)		9.82	15.3	8.64
CCCCCCCCCCCCCCCC(=O)NCCCCCCNC(=O)C1CCCCNC(=O)CCN2C(=O)CC(SC[C@@H](C(=O)NCC(=O)N[C@@H](CCCCN)C(N)=O)NC(=O)[C@H]([C@@H](C)CC)NC(=O)[C@H](CC(C)C)NC(=O)[C@H](Cc3c[nH]c4ccccc34)NC(=O)[C@H](CCC(=O)O)NC(=O)[C@H]([C@@H](C)CC)NC(=O)[C@H](Cc3ccccc3)NC(=O)[C@@H](NC(=O)[C@H](CCCCN)NC(=O)[C@H](C)NC(=O)[C@H](C)NC(=O)[C@H](CCC(=O)O)NC(=O)[C@H](CCC(=O)O)NC(=O)[C@H](CCC(=O)O)NC(=O)[C@H](CC(C)C)NC(=O)[C@H](Cc3ccc(O)cc3)NC(=O)[C@H](CCC(=O)O)NC(=O)[C@@H](NC(=O)[C@@H](NC(=O)[C@H](CC(=O)O)NC(=O)[C@H](CC(N)=O)NC(=O)[C@@H](NC(=O)[C@H](Cc3ccc(O)cc3)NC(=O)[C@@H](NC(=O)CNC(=O)[C@H](CCC(=O)O)NC(=O)C(C)(C)NC(=O)[C@@H](N)Cc3c[nH]cn3)[C@@H](C)O)[C@@H](C)O)C(C)C)[C@@H](C)O)CSC3CC(=O)N(CCC(=O)N1)C3=O)C2=O (some centres undefined) (HELM PEPTIDE1{H.[Aib].E.G.T.Y.T.N.D.V.T.E.Y.L.E.E.E.A.A.K.C.F.I.E.W.L.I.C.G.K.[am]}|CHEM1{[CCCCCCCCCCCCCCCC(=O)NCCCCCCNC(=O)C(CCCCNC(=O)CCN1C(=O)CC([*:2])C1=O)NC(=O)CCN1C(=O)CC([*:1])C1=O]}$PEPTIDE1,CHEM1,21:R3-1:R1|PEPTIDE1,CHEM1,28:R3-1:R2$$$V2.0)		9.92	18.3	8.66
CC[C@H](C)[C@@H]1NC(=O)[C@H](CC(C)C)NC(=O)[C@H](Cc2c[nH]c3ccccc23)NC(=O)[C@H](CCC(=O)O)NC(=O)[C@H]([C@@H](C)CC)NC(=O)[C@H](Cc2ccccc2)NC(=O)[C@@H](NC(=O)[C@H](CCCCN)NC(=O)[C@H](C)NC(=O)[C@H](C)NC(=O)[C@H](CCC(=O)O)NC(=O)[C@H](CCC(=O)O)NC(=O)[C@H](CCC(=O)O)NC(=O)[C@H](CC(C)C)NC(=O)[C@H](Cc2ccc(O)cc2)NC(=O)[C@H](CCC(=O)O)NC(=O)[C@@H](NC(=O)[C@@H](NC(=O)[C@H](CC(=O)O)NC(=O)[C@H](CC(N)=O)NC(=O)[C@@H](NC(=O)[C@H](Cc2ccc(O)cc2)NC(=O)[C@@H](NC(=O)CNC(=O)[C@H](CCC(=O)O)NC(=O)C(C)(C)NC(=O)[C@@H](N)Cc2c[nH]cn2)[C@@H](C)O)[C@@H](C)O)C(C)C)[C@@H](C)O)CSC2CC(=O)N(CCC(=O)NC(C(=O)NCCCCCCNC(=O)COCCOCCNC(=O)COCCOCCNC(=O)CCC(NC(=O)CCCCCCCCCCCCCCCCC(=O)O)C(=O)O)CCCCNC(=O)CCN3C(=O)CC(SC[C@@H](C(=O)NCC(=O)N[C@@H](CCCCN)C(N)=O)NC1=O)C3=O)C2=O (some centres undefined) (HELM PEPTIDE1{H.[Aib].E.G.T.Y.T.N.D.V.T.E.Y.L.E.E.E.A.A.K.C.F.I.E.W.L.I.C.G.K.[am]}|CHEM1{[O=C(O)CCCCCCCCCCCCCCCCC(=O)NC(CCC(=O)NCCOCCOCC(=O)NCCOCCOCC(=O)NCCCCCCNC(=O)C(CCCCNC(=O)CCN1C(=O)CC([*:2])C1=O)NC(=O)CCN1C(=O)CC([*:1])C1=O)C(=O)O]}$PEPTIDE1,CHEM1,21:R3-1:R1|PEPTIDE1,CHEM1,28:R3-1:R2$$$V2.0)		9.72	95.8	7.74
CC[C@H](C)[C@@H]1NC(=O)[C@H](CC(C)C)NC(=O)[C@H](Cc2c[nH]c3ccccc23)NC(=O)[C@H](CCC(=O)O)NC(=O)[C@H]([C@@H](C)CC)NC(=O)[C@H](Cc2ccccc2)NC(=O)[C@@H](NC(=O)[C@H](CCCCN)NC(=O)[C@H](C)NC(=O)[C@H](C)NC(=O)[C@H](CCC(=O)O)NC(=O)[C@H](CCC(=O)O)NC(=O)[C@H](CCC(=O)O)NC(=O)[C@H](CC(C)C)NC(=O)[C@H](Cc2ccc(O)cc2)NC(=O)[C@H](CCC(=O)O)NC(=O)[C@@H](NC(=O)[C@@H](NC(=O)[C@H](CC(=O)O)NC(=O)[C@H](CC(N)=O)NC(=O)[C@@H](NC(=O)[C@H](Cc2ccc(O)cc2)NC(=O)[C@@H](NC(=O)CNC(=O)[C@H](CCC(=O)O)NC(=O)C(C)(C)NC(=O)[C@@H](N)Cc2c[nH]cn2)[C@@H](C)O)[C@@H](C)O)C(C)C)[C@@H](C)O)CSC2CC(=O)N(CCC(=O)NC(C(=O)NCCCCCCNC(=O)COCCOCCNC(=O)CCCCCCCCCCCCCCCCC(=O)O)CCCCNC(=O)CCN3C(=O)CC(SC[C@@H](C(=O)NCC(=O)N[C@@H](CCCCN)C(N)=O)NC1=O)C3=O)C2=O (some centres undefined) (HELM PEPTIDE1{H.[Aib].E.G.T.Y.T.N.D.V.T.E.Y.L.E.E.E.A.A.K.C.F.I.E.W.L.I.C.G.K.[am]}|CHEM1{[O=C(O)CCCCCCCCCCCCCCCCC(=O)NCCOCCOCC(=O)NCCCCCCNC(=O)C(CCCCNC(=O)CCN1C(=O)CC([*:2])C1=O)NC(=O)CCN1C(=O)CC([*:1])C1=O]}$PEPTIDE1,CHEM1,21:R3-1:R1|PEPTIDE1,CHEM1,28:R3-1:R2$$$V2.0)		9.72	13.7	8.59
H-H[Aib]EGTYTNDVTEYCEEEAAKCFIEWLIKGKPSSGAPPSKKKKKK-NH2 (linker 14-21 via X1)		10.03	15.1	8.85
H-H[Aib]EGTYTNDVTEYCEEEAAKCFIEWLIKGKPSSGAPPSKKKKKK-NH2 (linker 14-21 via X3)		9.80	40.6	8.19
H-H[Aib]EGTYTNDVTEYCEEEAAKCFIEWLIKGKPSSGAPPSKKKKKK-NH2 (linker 14-21 via X4)		9.82	84.7	7.90
H-H[Aib]EGTYTNDVTEYCEEEAAKCFIEWLIKGKPSSGAPPSKKKKKK-NH2 (linker 14-21 via X7)		10.00	14	8.85
H-H[Aib]EGTYTNDVTEYLEEEAAKCFIEWLICGKPSSGAPPSKKKKKK-NH2 (linker 21-28 via X2)		9.74	38.3	8.16
H-H[Aib]EGTYTNDVTEYLEEEAAKCFIEWLICGKPSSGAPPSKKKKKK-NH2 (linker 21-28 via X6)		9.85	13.6	8.72
H-H[Aib]EGTYTNDVTEYLEEEAAKCFIEWLICGKPSSGAPPSKKKKKK-NH2 (linker 21-28 via X8)		9.92	12.5	8.82
